The compounds below were run against T1, human GPR40 (Homo sapiens, UniProt O14842) (assay: Inositol Phosphate Turnover (IP1) Assay 3). Settings: HEK cells stably expressing human GPR40.
T1 construct: expressed in transfected cells; host or cells: HEK cells stably expressing the aequorin reporter
Format: cell-based
Experimental: Human and mouse GPR40 stable cell-lines were generated in CHO cells stably expressing NFAT BLA (Beta-lactamase). A human GPR40 stable cell-line was generated in HEK cells stably expressing the aequorin expressing reporter. The expression plasmids were transfected using lipofectamine (Life Technologies) following manufacturer's instructions. Stable cell-lines were generated following drug selection.
Inositol Phosphate Turnover (IP1) Assay 3:
The assay was performed in 384-well format. HEK cells stably expressing human GPR40 were plated at 7500 cells per well in growth medium (DMEM/10% fetal calf serum). Cell plates were then incubated 16 hours at 37 degrees in a 5% CO2 incubator.
Measurement of Inositol Phosphate Turnover (IP) was performed using the CisBio IP-One kit (Part number 62IPAPEB). After the 16 hour incubation, the growth media was removed by centrifugation using the BlueWasher (AusWasher GUI Ver. v1.0.1.8) Protocol #21—“Light Dry” and 10 ul of stimulation buffer (prepared as described in the kit) was added to each well. In a separate plate, compounds were diluted in DMSO (200-fold over the final concentration in the assay well) and 50 nl was acoustically transferred to the appropriate well in the assay cell plate. The plates were then incubated for 60 minutes at 37 degrees in a 5% CO2 incubator. 10 ul of detection buffer (also prepared as described in the IP-One kit) was added to each well and the plates were incubated at rt for 60 minutes in the dark. The plates were then read in a Perkin Elmer EnVision or equivalent reader able to measure FRET. Fluorescent ratio of emission at 665 and 620 nm was then converted to IP1 concentration by back calculating from an IP1 standard curve prepared at the time of the assay. Data is normalized to % activity using a reference compound and EC50s determined using a standard 4-parameter fit.

T1 sequence (O14842 whole entry): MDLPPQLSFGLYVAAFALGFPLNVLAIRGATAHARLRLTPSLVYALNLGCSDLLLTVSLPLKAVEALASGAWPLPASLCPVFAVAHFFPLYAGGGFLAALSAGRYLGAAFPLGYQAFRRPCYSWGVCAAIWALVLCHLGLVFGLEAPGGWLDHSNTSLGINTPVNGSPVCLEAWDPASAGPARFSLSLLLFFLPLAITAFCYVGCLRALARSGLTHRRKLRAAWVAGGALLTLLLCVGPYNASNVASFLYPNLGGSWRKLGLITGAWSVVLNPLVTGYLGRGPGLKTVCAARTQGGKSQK

Compound | EC50
CCN(Cc1cc(-c2ccnc(OC)c2)ccc1C1CCc2ccc([C@H](C3CC3)[C@H](C)C(=O)O)cc2O1)C(C)C (single isomer, unassigned) [Example 113b] | 14 nM
COc1cc(-c2ccc(C3CCc4ccc([C@H](C5CC5)[C@H](C)C(=O)O)cc4O3)c(CN(C)C(C)(C)C)c2)ccn1 (single isomer, unassigned) [Example 114a] | 1.5 nM
COc1cc(-c2ccc(C3CCc4ccc([C@H](C5CC5)[C@H](C)C(=O)O)cc4O3)c(CN(C)C(C)(C)C)c2)ccn1 (single isomer, unassigned) [Example 114b] | 250 nM
COc1cc(-c2ccc(C3CCc4ccc([C@H](C5CC5)[C@H](C)C(=O)O)cc4O3)c(CN(C(C)C)C(C)C)c2)ccn1 (single isomer, unassigned) [Example 115b] | 5.3 nM
COc1cc(-c2ccc(C3CCc4ccc([C@H](C5CC5)[C@H](C)C(=O)O)cc4O3)c(CN3[C@H](C)CC[C@H]3C)c2)ccn1 (single isomer, unassigned) [Example 116a] | 1.7 nM
COc1cc(-c2ccc(C3CCc4ccc([C@H](C5CC5)[C@H](C)C(=O)O)cc4O3)c(CN3[C@H](C)CC[C@H]3C)c2)ccn1 (single isomer, unassigned) [Example 116c] | 1000 nM
COc1cc(-c2ccc(C3CCc4ccc([C@H](C5CC5)[C@H](C)C(=O)O)cc4O3)c(CN3[C@H](C)CC[C@H]3C)c2)ccn1 (single isomer, unassigned) [Example 116d] | 387 nM
COc1cc(-c2ccc(C3CCc4ccc([C@H](C5CC5)[C@H](C)C(=O)O)cc4O3)c(CN3CCCCC3(C)C)c2)ccn1 (single isomer, unassigned) [Example 117b] | 24 nM
COc1cc(-c2ccc(C3CCc4ccc([C@H](C5CC5)[C@H](C)C(=O)O)cc4O3)c(CN3CCC[C@@H]3C)c2)ccn1 (single isomer, unassigned) [Example 118b] | 109 nM
COc1cc(-c2ccc(C3CCc4ccc([C@H](C5CC5)[C@H](C)C(=O)O)cc4O3)c(CN3CCC[C@H]3C)c2)ccn1 (single isomer, unassigned) [Example 119a] | 308 nM
COc1cc(-c2ccc(C3CCc4ccc([C@H](C5CC5)[C@H](C)C(=O)O)cc4O3)c(CN3CCC[C@H]3C)c2)ccn1 (single isomer, unassigned) [Example 119b] | 4.2 nM
COc1cc(-c2ccc(C3CCc4ccc([C@H](C5CC5)[C@H](C)C(=O)O)cc4O3)c(CN3CCCC[C@H]3C)c2)ccn1 (single isomer, unassigned) [Example 120b] | 41 nM
COc1cc(-c2ccc(C3CCc4ccc([C@H](C5CC5)[C@H](C)C(=O)O)cc4O3)c(CN3[C@H](C)CC[C@@H]3C)c2)ccn1 (single isomer, unassigned) [Example 122a] | 3.3 nM
COc1cc(-c2ccc(C3CCc4ccc([C@H](C5CC5)[C@H](C)C(=O)O)cc4O3)c(CN3[C@H](C)CC[C@@H]3C)c2)ccn1 (single isomer, unassigned) [Example 122b] | 190 nM
COc1cc(-c2ccc(C3CCc4ccc([C@H](C5CC5)[C@H](C)C(=O)O)cc4O3)c(CN3CCCC3)c2)c(F)cn1 (single isomer, unassigned) [Example 123a] | 91 nM
CCN(Cc1cc(-c2cc(OC)ncc2F)ccc1C1CCc2ccc([C@H](C3CC3)[C@H](C)C(=O)O)cc2O1)C(C)C (single isomer, unassigned) [Example 124b] | 16 nM
COc1cc(-c2ccc(C3CCc4ccc([C@H](C5CC5)[C@H](C)C(=O)O)cc4O3)c(CN(C)C(C)(C)C)c2)c(F)cn1 (single isomer, unassigned) [Example 125b] | 12 nM
COc1cc(-c2ccc(C3CCc4ccc([C@H](C5CC5)[C@H](C)C(=O)O)cc4O3)c(CN(C(C)C)C(C)C)c2)c(F)cn1 (single isomer, unassigned) [Example 126b] | 2.7 nM
COc1cc(-c2ccc(C3CCc4ccc([C@H](C5CC5)[C@H](C)C(=O)O)cc4O3)c(CN3CCC[C@@H]3C)c2)c(F)cn1 (single isomer, unassigned) [Example 129b] | 36 nM
COc1cc(-c2ccc(C3CCc4ccc([C@H](C5CC5)[C@H](C)C(=O)O)cc4O3)c(CN3CCCC[C@H]3C)c2)c(F)cn1 (single isomer, unassigned) [Example 130a] | 8.7 nM
CCOc1cc(-c2ccc(C3CCc4ccc([C@H](C5CC5)[C@H](C)C(=O)O)cc4O3)c(CN(C)C(C)(C)C)c2)c(F)cn1 (single isomer, unassigned) [Example 132a] | 1.8 nM
CCOc1cc(-c2ccc(C3CCc4ccc([C@H](C5CC5)[C@H](C)C(=O)O)cc4O3)c(CN(C)C(C)(C)C)c2)c(F)cn1 (single isomer, unassigned) [Example 132b] | 106 nM
CCOc1cc(-c2ccc(C3CCc4ccc([C@H](C5CC5)[C@H](C)C(=O)O)cc4O3)cc2CN(CC)CC)c(F)cn1 (single isomer, unassigned) [Example 171, (2S, 3R)-3-cyclopropyl-3-((R or S)-2-(3-((diethylamino)methyl)-4-(2-ethoxy-5-fluoropyridin-4-yl)phenyl)chroman-7-yl)-2-methylpropanoic acid] | 2.5 nM
CCOc1cc(-c2ccc(C3CCc4ccc([C@H](C5CC5)[C@H](C)C(=O)O)cc4O3)cc2CN(CC)CC)c(F)cn1 (single isomer, unassigned) [Example 172, (2S, 3R)-3-cyclopropyl-3-((S or R)-2-(3-((diethylamino)methyl)-4-(2-ethoxy-5-fluoropyridin-4-yl)phenyl)chroman-7-yl)-2-methylpropanoic acid] | 2.3 nM
CCOc1cc(-c2ccc(C3CCc4ccc([C@H](C5CC5)[C@H](C)C(=O)O)cc4O3)cc2CN2CCCC2)c(F)cn1 (single isomer, unassigned) [Example 173] | 50 nM
CCOc1cc(-c2ccc(C3CCc4ccc([C@H](C5CC5)[C@H](C)C(=O)O)cc4O3)cc2CN2CCCC2)c(F)cn1 (single isomer, unassigned) [Example 174] | 27 nM

Compounds with a lower EC50, results first:

EC50 | Compound
0.1 nM | COc1cc(-c2ccc(C3CCc4ccc([C@H](C5CC5)[C@H](C)C(=O)O)cc4O3)c(CN(C(C)C)C(C)C)c2)ccn1 (single isomer, unassigned) [Example 115a]
1 nM | COc1cc(-c2ccc(C3CCc4ccc([C@H](C5CC5)[C@H](C)C(=O)O)cc4O3)c(CN3[C@H](C)CC[C@H]3C)c2)ccn1 (single isomer, unassigned) [Example 116b]
0.4 nM | COc1cc(-c2ccc(C3CCc4ccc([C@H](C5CC5)[C@H](C)C(=O)O)cc4O3)c(CN3CCCCC3(C)C)c2)ccn1 (single isomer, unassigned) [Example 117a]
0.6 nM | COc1cc(-c2ccc(C3CCc4ccc([C@H](C5CC5)[C@H](C)C(=O)O)cc4O3)c(CN3CCC[C@@H]3C)c2)ccn1 (single isomer, unassigned) [Example 118a]
0.4 nM | COc1cc(-c2ccc(C3CCc4ccc([C@H](C5CC5)[C@H](C)C(=O)O)cc4O3)c(CN3CCCC[C@H]3C)c2)ccn1 (single isomer, unassigned) [Example 120a]
1.4 nM | COc1cc(-c2ccc(C3CCc4ccc([C@H](C5CC5)[C@H](C)C(=O)O)cc4O3)c(CN3CCCC3)c2)c(F)cn1 (single isomer, unassigned) [Example 123b]
0.09 nM | CCN(Cc1cc(-c2cc(OC)ncc2F)ccc1C1CCc2ccc([C@H](C3CC3)[C@H](C)C(=O)O)cc2O1)C(C)C (single isomer, unassigned) [Example 124a]
0.3 nM | COc1cc(-c2ccc(C3CCc4ccc([C@H](C5CC5)[C@H](C)C(=O)O)cc4O3)c(CN(C)C(C)(C)C)c2)c(F)cn1 (single isomer, unassigned) [Example 125a]
0.05 nM | COc1cc(-c2ccc(C3CCc4ccc([C@H](C5CC5)[C@H](C)C(=O)O)cc4O3)c(CN(C(C)C)C(C)C)c2)c(F)cn1 (single isomer, unassigned) [Example 126a]
0.07 nM | COc1cc(-c2ccc(C3CCc4ccc([C@H](C5CC5)[C@H](C)C(=O)O)cc4O3)c(CN3CCCCC3(C)C)c2)c(F)cn1 (single isomer, unassigned) [Example 128a]
1.2 nM | COc1cc(-c2ccc(C3CCc4ccc([C@H](C5CC5)[C@H](C)C(=O)O)cc4O3)c(CN3CCCCC3(C)C)c2)c(F)cn1 (single isomer, unassigned) [Example 128b]
0.25 nM | COc1cc(-c2ccc(C3CCc4ccc([C@H](C5CC5)[C@H](C)C(=O)O)cc4O3)c(CN3CCC[C@@H]3C)c2)c(F)cn1 (single isomer, unassigned) [Example 129a]
0.06 nM | COc1cc(-c2ccc(C3CCc4ccc([C@H](C5CC5)[C@H](C)C(=O)O)cc4O3)c(CN3CCCC[C@H]3C)c2)c(F)cn1 (single isomer, unassigned) [Example 130b]
0.8 nM | CCOc1cc(-c2ccc(C3CCc4ccc([C@H](C5CC5)[C@H](C)C(=O)O)cc4O3)c(CN3CCC[C@@H]3C)c2)c(F)cn1 (single isomer, unassigned) [Example 133]

Source: US10968193B2, “Antidiabetic bicyclic compounds” (Merck Sharp & Dohme Corp., priority 2014, dated 2021)
